Measurements reported in ChEMBL document CHEMBL1201862, “PubChem BioAssay data set” (2004).
Values joined by “and” are separate entries in the source; they are usually repeats but may differ in a detail not shown here. Equal entries are not always repeated.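 Exposure lasted 48 hours, with cells grown in 96-well plates and compounds tested at five concentrations. The concentration for 50% growth inhibition is given as GI50.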 Active and inactive are the calls of the source. No stated cut-off is given here; in the data, active = GI50 up to about 1.1 µM and inactive = higher.

How the values were obtained:
Assay in all cases: NCI-60 cell line screen, 48 h
[1] = tested on: NCI/ADR-RES
[2] = tested on: SF-268
[3] = tested on: RXF 393
[4] = tested on: ACHN
[5] = tested on: MOLT-4
[6] = tested on: IGROV-1
[7] = tested on: A498
[8] = tested on: SNB-75
[9] = tested on: CAKI-1
[10] = tested on: T47D
[11] = tested on: K562
[12] = tested on: SK-MEL-28
[13] = tested on: NCI-H460
[14] = tested on: A549
[15] = tested on: MCF7
[16] = tested on: NCI-H522
[17] = tested on: M14
[18] = tested on: TK-10
[19] = tested on: MDA-MB-435
[20] = tested on: CCRF-CEM
[21] = tested on: Hs-578T
[22] = tested on: HOP-92
[23] = tested on: U-251
[24] = tested on: PC-3
[25] = tested on: SF-295
[26] = tested on: SNB-19
[27] = tested on: OVCAR-4
[28] = tested on: EKVX
[29] = tested on: UACC-62
[30] = tested on: NCI-H23
[31] = tested on: SK-MEL-2
[32] = tested on: COLO 205
[33] = tested on: SK-OV-3
[34] = tested on: UO-31
[35] = tested on: SW-620
[36] = tested on: HT-29
[37] = tested on: LOX IMVI
[38] = tested on: HCT-15
[39] = tested on: HCT-116
[40] = tested on: SN12C
[41] = tested on: NCI-H226
[42] = tested on: Malme-3M
[43] = tested on: DU-145
[44] = tested on: RPMI-8226
[45] = tested on: HCC 2998
[46] = tested on: OVCAR-5
[47] = tested on: OVCAR-3
[48] = tested on: SF-539
[49] = tested on: HOP-62
[50] = tested on: MDA-N
[51] = tested on: SK-MEL-5
[52] = tested on: HL-60
[53] = tested on: OVCAR-8
[54] = tested on: KM12
[55] = tested on: 786-0
[56] = tested on: UACC-257
[57] = tested on: MDA-MB-231
[58] = tested on: SR

Measured: GI50

O=[N+]([O-])c1cc2c(c3nonc13)OCCCCO2
inactive: [1] 10.5 µM | [2] 3.37 µM | [3] 7.74 µM | [4] 6.22 µM | [5] 3.99 µM | [6] 9.16 µM | [7] 24.9 µM | [8] 10.6 µM | [9] 14.3 µM | [10] 26.5 µM | [11] 3.64 µM | [12] 9.89 µM | [13] 3.76 µM | [14] 10.3 µM | [15] 7.76 µM | [16] 4.39 µM | [17] 5 µM | [18] 21.8 µM | [19] 5.25 µM | [20] 1.5 µM | [21] 12.3 µM | [22] 12.7 µM | [23] 7.1 µM | [24] 14.9 µM | [25] 17.5 µM | [26] 13.4 µM | [27] 14.2 µM | [28] 18.2 µM | [29] 5.77 µM | [30] 10.2 µM | [31] 13.8 µM | [32] 4.95 µM | [33] 26.4 µM | [34] 4.19 µM | [35] 5.86 µM | [36] 3.88 µM | [37] 2.81 µM | [39] 1.75 µM | [40] 4.6 µM | [41] 14.4 µM | [42] 3.66 µM | [43] 15 µM | [44] 3.7 µM | [45] 17.3 µM | [46] 12.1 µM | [47] 2.19 µM | [48] 2.82 µM | [49] 4.37 µM | [50] 4.13 µM | [51] 8.61 µM | [52] 2.55 µM | [53] 4.36 µM | [54] 4.37 µM | [55] 2.02 µM | [56] 15.5 µM | [57] 3.31 µM
2.94 µM: [38]

CC(C)(C)OC(=O)N1Cc2cc(O)ccc2C[C@H]1C(=O)O
inactive: [1] > 100 µM | [2] > 100 µM | [3] > 100 µM | [4] > 100 µM | [58] > 100 µM | [5] > 100 µM | [6] > 100 µM | [7] > 100 µM | [8] > 100 µM | [9] > 100 µM | [10] > 100 µM | [11] > 100 µM | [12] > 100 µM | [13] > 100 µM | [14] > 100 µM | [15] > 100 µM | [16] > 100 µM | [18] > 100 µM | [19] > 100 µM | [20] > 100 µM | [21] > 100 µM | [22] > 100 µM | [23] > 100 µM | [24] > 100 µM | [25] > 100 µM | [26] > 100 µM | [27] > 100 µM | [28] > 100 µM | [29] > 100 µM | [30] > 100 µM | [31] > 100 µM | [32] > 100 µM | [33] > 100 µM | [35] > 100 µM | [36] > 100 µM | [37] > 100 µM | [39] > 100 µM | [40] > 100 µM | [41] > 100 µM | [42] > 100 µM | [43] > 100 µM | [45] > 100 µM | [46] > 100 µM | [47] > 100 µM | [48] > 100 µM | [49] > 100 µM | [50] > 100 µM | [51] > 100 µM | [53] > 100 µM | [54] > 100 µM | [55] > 100 µM | [56] > 100 µM | [57] > 100 µM
> 100 µM: [38]
active: [52] 0.137 µM

CCC1(CC)SCc2nc3ccccc3n21
inactive: [1] 25.6 µM | [2] 52 µM | [3] 32.2 µM | [4] 30.1 µM | [5] 22.8 µM | [6] 34.2 µM | [7] 40.1 µM | [8] 12.6 µM | [9] 35.2 µM | [10] 49.7 µM | [11] 18.9 µM | [12] 37.2 µM | [13] 36.9 µM | [14] 35.9 µM | [15] 30.2 µM | [16] 37.6 µM | [17] 26.5 µM | [18] 38.8 µM | [19] 26 µM | [20] 33.4 µM | [21] 31.1 µM | [22] 18 µM | [23] 37.2 µM | [24] 13.8 µM | [25] 36.5 µM | [26] 53.2 µM | [27] 20.6 µM | [28] 27.3 µM | [29] 39.4 µM | [30] 27.7 µM | [31] 27.5 µM | [32] 19.8 µM | [33] 38.5 µM | [34] 35.4 µM | [35] 58.6 µM | [36] 32.3 µM | [37] 34.8 µM | [39] 23.9 µM | [40] 49.8 µM | [41] 33.4 µM | [42] 22.4 µM | [43] 50 µM | [44] 24.9 µM | [45] 94.6 µM | [46] 45.6 µM | [47] 32.1 µM | [48] 54.3 µM | [49] 37.1 µM | [50] 34.9 µM | [51] 20.9 µM | [52] 26 µM | [53] 38.4 µM | [54] 23.9 µM | [55] 66.4 µM | [56] 27.4 µM | [57] 29.6 µM
36.2 µM: [38]

Nc1ccccc1C(=O)NNC(=O)c1ccccc1N
> 100 µM: [38]
inactive: [1] > 100 µM | [3] > 100 µM | [4] > 100 µM | [5] > 100 µM | [6] > 100 µM | [7] > 100 µM | [8] 35.5 µM | [9] > 100 µM | [10] > 100 µM | [11] > 100 µM | [12] > 100 µM | [14] > 100 µM | [15] > 100 µM | [16] > 100 µM | [17] > 100 µM | [18] > 100 µM | [19] > 100 µM | [20] > 100 µM | [22] > 100 µM | [23] > 100 µM | [24] > 100 µM | [25] > 100 µM | [26] > 100 µM | [27] > 100 µM | [28] > 100 µM | [29] > 100 µM | [30] > 100 µM | [31] > 100 µM | [32] > 100 µM | [33] > 100 µM | [34] > 100 µM | [35] > 100 µM | [36] > 100 µM | [37] > 100 µM | [39] > 100 µM | [40] > 100 µM | [41] > 100 µM | [42] > 100 µM | [43] > 100 µM | [44] > 100 µM | [45] > 100 µM | [46] > 100 µM | [47] > 100 µM | [48] > 100 µM | [49] > 100 µM | [50] > 100 µM | [51] > 100 µM | [52] > 100 µM | [53] > 100 µM | [54] > 100 µM | [55] > 100 µM | [56] > 100 µM | [57] > 100 µM

O=C1N/C(=N/N=C\C(O)C(O)C(O)CO)N/C1=C/c1ccccc1 (stereo not given)
inactive: [1] > 100 µM | [2] > 100 µM and 62.7 µM | [3] > 100 µM | [4] > 100 µM | [5] 24 µM and 39.6 µM | [8] > 100 µM | [9] > 100 µM | [14] > 100 µM | [15] 34.4 µM and 32.6 µM | [18] > 100 µM | [21] > 100 µM | [23] > 100 µM and 52.5 µM | [26] > 100 µM | [28] > 100 µM and 85.7 µM | [30] > 100 µM | [31] > 100 µM | [32] > 100 µM | [33] > 100 µM | [34] > 100 µM | [36] 50.1 µM | [37] > 100 µM | [41] > 100 µM | [42] 82 µM | [43] > 100 µM | [45] 51.6 µM | [46] > 100 µM | [49] > 100 µM | [50] 53 µM | [53] 65 µM | [55] 64 µM | [56] > 100 µM | [57] 60 µM
